Earlier results, collected in patent publication US7455864B2, “Melatonin-based composition for improved sleep” (Iomedix Development International Srl, priority 2007, dated 2008).

Legend:
humans [1] = details: melatonin supplementation in humans
humans [2] = details: melatonin supplementation in humans; remark: listed apart in the source
humans [3] = details: transdermal absorption

COc1ccc2[nH]cc(CCNC(C)=O)c2c1 [Melatonin]
onset of sleep (humans [1]): hastening the onset of sleep
treatment of jet lag (humans [2]): efficacious for treating jet lag

C=CC(C)(O)CCC=C(C)C (stereo not shown) [linalool]
blood pressure (humans [3]): reduce
skin temperature (humans [3]): reduce
